# Measured values reported in ChEMBL document CHEMBL1641539 (Bioorg Med Chem Lett, 2011).
# Legend:
# [1] = biological target: cAMP-dependent protein kinase catalytic subunit alpha (Homo sapiens) (UniProt P17612); assay: Inhibition of PRKACA at 10 uM after 60 mins by TR-FRET assay
# [2] = biological target: Calcium/calmodulin-dependent protein kinase type II subunit alpha (Homo sapiens) (UniProt Q9UQM7); assay: Inhibition of CAMK2A at 10 uM after 60 mins by TR-FRET assay
# [3] = biological target: Tyrosine-protein kinase ABL1 (Homo sapiens) (UniProt P00519); assay: Inhibition of ABL1 at 10 uM after 60 mins by TR-FRET assay
# [4] = biological target: Serine/threonine-protein kinase PLK1 (Homo sapiens) (UniProt P53350); assay: Inhibition of PLK1 at 10 uM after 60 mins by TR-FRET assay
# [5] = biological target: Tyrosine-protein kinase SYK (Homo sapiens) (UniProt P43405); assay: Inhibition of SYK at 10 uM after 60 mins by TR-FRET assay
# [6] = biological target: Dual specificity tyrosine-phosphorylation-regulated kinase 1B (Homo sapiens) (UniProt Q9Y463); assay: Inhibition of DYRK1B at 10 uM after 60 mins by TR-FRET assay
# Dual specificity tyrosine-phosphorylation-regulated kinase 1B (Homo sapiens), sequence (Q9Y463 whole entry, looked up): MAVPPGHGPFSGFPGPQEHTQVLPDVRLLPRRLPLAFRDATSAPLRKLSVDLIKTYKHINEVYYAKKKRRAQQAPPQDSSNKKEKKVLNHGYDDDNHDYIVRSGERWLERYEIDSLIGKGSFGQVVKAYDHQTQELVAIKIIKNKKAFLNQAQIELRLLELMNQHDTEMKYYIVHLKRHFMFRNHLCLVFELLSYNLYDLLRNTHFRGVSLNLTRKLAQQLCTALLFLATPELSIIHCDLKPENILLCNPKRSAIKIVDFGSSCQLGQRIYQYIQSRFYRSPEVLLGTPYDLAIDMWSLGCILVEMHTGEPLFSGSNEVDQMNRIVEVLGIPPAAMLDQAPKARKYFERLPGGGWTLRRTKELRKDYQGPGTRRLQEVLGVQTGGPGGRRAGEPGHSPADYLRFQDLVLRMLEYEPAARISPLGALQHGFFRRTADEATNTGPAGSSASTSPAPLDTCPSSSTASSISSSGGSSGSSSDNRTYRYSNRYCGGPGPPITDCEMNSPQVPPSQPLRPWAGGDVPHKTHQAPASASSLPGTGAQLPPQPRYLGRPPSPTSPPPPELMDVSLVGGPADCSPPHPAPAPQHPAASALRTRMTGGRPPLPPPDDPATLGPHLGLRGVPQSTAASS
# [7] = biological target: Protein-tyrosine kinase 2-beta (Homo sapiens) (UniProt Q14289); assay: Inhibition of PTK2B at 10 uM after 60 mins by TR-FRET assay
# Protein-tyrosine kinase 2-beta (Homo sapiens), sequence (Q14289 whole entry, looked up): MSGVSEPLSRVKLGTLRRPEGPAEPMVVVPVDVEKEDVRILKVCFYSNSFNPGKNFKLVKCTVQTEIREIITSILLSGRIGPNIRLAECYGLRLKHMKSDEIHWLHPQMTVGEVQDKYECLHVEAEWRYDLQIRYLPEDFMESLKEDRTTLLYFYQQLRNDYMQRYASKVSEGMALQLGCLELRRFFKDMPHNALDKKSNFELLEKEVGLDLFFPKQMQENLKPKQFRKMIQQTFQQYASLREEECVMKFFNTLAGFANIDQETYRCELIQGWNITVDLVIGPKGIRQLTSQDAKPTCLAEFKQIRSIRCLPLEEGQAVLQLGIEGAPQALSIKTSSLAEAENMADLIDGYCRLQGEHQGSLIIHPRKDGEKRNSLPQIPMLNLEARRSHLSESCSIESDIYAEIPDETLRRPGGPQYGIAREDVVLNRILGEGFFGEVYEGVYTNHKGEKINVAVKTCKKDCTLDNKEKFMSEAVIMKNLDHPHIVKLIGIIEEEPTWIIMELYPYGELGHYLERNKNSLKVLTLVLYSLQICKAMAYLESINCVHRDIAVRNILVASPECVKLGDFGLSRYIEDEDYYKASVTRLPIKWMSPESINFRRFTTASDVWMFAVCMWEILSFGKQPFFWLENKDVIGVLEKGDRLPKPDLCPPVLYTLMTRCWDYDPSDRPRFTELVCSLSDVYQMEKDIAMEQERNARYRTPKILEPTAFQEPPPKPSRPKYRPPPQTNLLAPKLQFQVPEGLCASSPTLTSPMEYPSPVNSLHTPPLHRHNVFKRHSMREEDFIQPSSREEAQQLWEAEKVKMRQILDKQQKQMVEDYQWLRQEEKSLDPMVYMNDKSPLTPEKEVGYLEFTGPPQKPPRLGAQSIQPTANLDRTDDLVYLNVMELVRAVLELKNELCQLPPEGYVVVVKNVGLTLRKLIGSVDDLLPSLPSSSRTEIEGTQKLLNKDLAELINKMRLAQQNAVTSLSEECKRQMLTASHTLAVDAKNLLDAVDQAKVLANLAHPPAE
# [8] = biological target: Proto-oncogene tyrosine-protein kinase receptor Ret (Homo sapiens) (UniProt P07949); assay: Inhibition of RET at 10 uM after 60 mins by TR-FRET assay
# [9] = biological target: Mitogen-activated protein kinase 14 (Homo sapiens, UniProt Q16539); assay: Inhibition of recombinant p38alpha after 60 mins by TR-FRET assay
# Mitogen-activated protein kinase 14, sequence (Q16539 whole entry): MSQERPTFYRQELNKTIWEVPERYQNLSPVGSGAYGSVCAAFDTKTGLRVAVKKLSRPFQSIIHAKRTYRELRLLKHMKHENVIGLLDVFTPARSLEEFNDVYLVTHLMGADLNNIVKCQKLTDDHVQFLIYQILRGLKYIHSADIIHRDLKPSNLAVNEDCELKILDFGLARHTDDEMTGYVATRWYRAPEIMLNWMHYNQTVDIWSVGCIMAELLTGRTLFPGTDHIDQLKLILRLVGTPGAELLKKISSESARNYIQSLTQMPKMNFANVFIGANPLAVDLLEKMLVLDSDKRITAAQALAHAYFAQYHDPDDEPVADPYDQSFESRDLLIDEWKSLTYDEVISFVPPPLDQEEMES
# [10] = biological target: T1, Serine/threonine-protein kinase 3 (Homo sapiens) (UniProt Q13188); assay: Inhibition of STK3 at 10 uM after 60 mins by TR-FRET assay
# T1 sequence (whole entry): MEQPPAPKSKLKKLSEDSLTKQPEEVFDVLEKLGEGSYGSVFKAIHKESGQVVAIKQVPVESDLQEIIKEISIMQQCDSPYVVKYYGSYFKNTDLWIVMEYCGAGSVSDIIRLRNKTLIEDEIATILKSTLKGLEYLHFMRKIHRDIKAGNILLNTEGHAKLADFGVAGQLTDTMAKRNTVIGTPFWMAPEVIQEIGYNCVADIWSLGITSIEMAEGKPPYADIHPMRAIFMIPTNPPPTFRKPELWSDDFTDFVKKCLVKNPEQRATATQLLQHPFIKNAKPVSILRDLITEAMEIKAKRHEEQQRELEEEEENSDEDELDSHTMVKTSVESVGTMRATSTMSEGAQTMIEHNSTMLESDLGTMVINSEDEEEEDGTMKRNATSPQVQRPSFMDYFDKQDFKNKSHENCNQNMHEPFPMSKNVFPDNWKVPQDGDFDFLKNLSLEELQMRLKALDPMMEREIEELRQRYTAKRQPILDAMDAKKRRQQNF
# [11] = biological target: Receptor tyrosine-protein kinase erbB-4 (Homo sapiens) (UniProt Q15303); assay: Inhibition of ERBB4 at 10 uM after 60 mins by TR-FRET assay
# [12] = biological target: Platelet-derived growth factor receptor alpha (Homo sapiens) (UniProt P16234); assay: Inhibition of PDGFRA at 10 uM after 60 mins by TR-FRET assay
# [13] = biological target: Mitogen-activated protein kinase 1 (Homo sapiens, UniProt P28482); assay: Inhibition of MAPK1 at 10 uM after 60 mins by TR-FRET assay
# [14] = biological target: Serine/threonine-protein kinase PLK3 (Homo sapiens) (UniProt Q9H4B4); assay: Inhibition of PLK3 at 10 uM after 60 mins by TR-FRET assay
# Serine/threonine-protein kinase PLK3 (Homo sapiens), sequence (Q9H4B4 whole entry, looked up): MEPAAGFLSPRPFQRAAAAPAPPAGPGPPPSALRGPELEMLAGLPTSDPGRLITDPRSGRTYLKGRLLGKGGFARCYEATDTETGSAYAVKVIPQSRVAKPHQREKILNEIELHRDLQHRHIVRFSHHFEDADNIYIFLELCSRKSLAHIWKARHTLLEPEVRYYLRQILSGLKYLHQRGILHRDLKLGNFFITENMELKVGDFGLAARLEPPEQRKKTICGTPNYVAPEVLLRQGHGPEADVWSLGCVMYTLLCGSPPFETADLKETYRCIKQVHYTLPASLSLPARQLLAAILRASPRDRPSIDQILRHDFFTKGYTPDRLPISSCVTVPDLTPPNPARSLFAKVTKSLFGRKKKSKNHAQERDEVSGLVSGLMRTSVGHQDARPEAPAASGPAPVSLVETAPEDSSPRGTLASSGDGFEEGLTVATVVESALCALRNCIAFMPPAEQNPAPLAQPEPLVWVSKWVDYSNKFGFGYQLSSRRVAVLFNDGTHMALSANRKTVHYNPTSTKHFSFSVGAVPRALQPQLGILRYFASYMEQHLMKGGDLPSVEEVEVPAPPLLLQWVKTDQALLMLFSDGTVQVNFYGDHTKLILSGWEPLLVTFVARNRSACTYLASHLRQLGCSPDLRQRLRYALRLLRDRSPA
# [15] = biological target: Serine/threonine-protein kinase MARK2 (Homo sapiens) (UniProt Q7KZI7); assay: Inhibition of MARK2 at 10 uM after 60 mins by TR-FRET assay
# [16] = biological target: Cyclin-dependent kinase 2/cyclin A (Homo sapiens) (UniProt P24941+P20248+P78396); assay: Inhibition of CDK2/cyclin A at 10 uM after 60 mins by TR-FRET assay; format: protein-complex assay
# [17] = biological target: Glycogen synthase kinase-3 beta (Homo sapiens) (UniProt P49841); assay: Inhibition of GSK3B at 10 uM after 60 mins by TR-FRET assay
# Glycogen synthase kinase-3 beta (Homo sapiens), sequence (P49841 whole entry, looked up): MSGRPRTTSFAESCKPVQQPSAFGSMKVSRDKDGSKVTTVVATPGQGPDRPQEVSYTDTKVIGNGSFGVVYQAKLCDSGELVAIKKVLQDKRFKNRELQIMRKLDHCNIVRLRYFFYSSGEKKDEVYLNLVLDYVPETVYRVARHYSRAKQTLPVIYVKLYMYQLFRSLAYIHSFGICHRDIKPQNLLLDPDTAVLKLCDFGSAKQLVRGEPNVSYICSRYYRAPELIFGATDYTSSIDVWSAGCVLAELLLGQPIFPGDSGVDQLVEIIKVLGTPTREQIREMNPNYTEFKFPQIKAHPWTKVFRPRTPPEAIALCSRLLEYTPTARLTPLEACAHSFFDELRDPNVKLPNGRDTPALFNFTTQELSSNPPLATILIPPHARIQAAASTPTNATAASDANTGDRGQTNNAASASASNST
# [18] = biological target: Cyclin-dependent kinase 1/cyclin B (Homo sapiens) (UniProt P06493+P14635+Q8WWL7+O95067); assay: Inhibition of CDK1/cyclin B at 10 uM after 60 mins by TR-FRET assay; format: protein-complex assay
# [19] = biological target: Cyclin-dependent kinase 5/CDK5 activator 1 (Homo sapiens) (UniProt Q00535+Q15078); assay: Inhibition of CDK5/p25 at 10 uM after 60 mins by TR-FRET assay; format: protein-complex assay
# Cyclin-dependent kinase 5/CDK5 activator 1 (Homo sapiens), sequence (Q00535 whole entry): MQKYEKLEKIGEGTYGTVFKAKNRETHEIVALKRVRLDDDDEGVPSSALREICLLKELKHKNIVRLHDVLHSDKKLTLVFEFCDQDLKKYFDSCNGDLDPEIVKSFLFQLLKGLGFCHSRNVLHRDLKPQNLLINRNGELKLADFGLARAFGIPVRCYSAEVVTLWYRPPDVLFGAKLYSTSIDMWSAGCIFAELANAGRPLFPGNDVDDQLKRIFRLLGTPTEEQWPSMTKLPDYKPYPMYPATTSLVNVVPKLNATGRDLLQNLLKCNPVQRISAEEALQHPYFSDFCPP
# Cyclin-dependent kinase 5/CDK5 activator 1 (Homo sapiens), sequence (Q15078 99-307 partner limits assumed): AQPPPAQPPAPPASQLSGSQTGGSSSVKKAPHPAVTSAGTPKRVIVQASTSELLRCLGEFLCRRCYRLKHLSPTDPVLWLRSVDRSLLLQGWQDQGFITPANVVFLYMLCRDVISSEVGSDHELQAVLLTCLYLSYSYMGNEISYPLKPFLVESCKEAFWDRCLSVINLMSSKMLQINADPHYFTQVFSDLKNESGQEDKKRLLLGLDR
# [20] = biological target: Insulin receptor (Homo sapiens) (UniProt P06213); assay: Inhibition of INSR at 10 uM after 60 mins by TR-FRET assay
# [21] = biological target: Protein kinase C beta type (Homo sapiens) (UniProt P05771); assay: Inhibition of PRKCB1 at 10 uM after 60 mins by TR-FRET assay
# [22] = biological target: Macrophage colony-stimulating factor 1 receptor (Homo sapiens) (UniProt P07333); assay: Inhibition of CSF1R at 10 uM after 60 mins by TR-FRET assay
# [23] = biological target: Receptor-type tyrosine-protein kinase FLT3 (Homo sapiens) (UniProt P36888); assay: Inhibition of FLT3 at 10 uM after 60 mins by TR-FRET assay
# Receptor-type tyrosine-protein kinase FLT3 (Homo sapiens), sequence (P36888 whole entry): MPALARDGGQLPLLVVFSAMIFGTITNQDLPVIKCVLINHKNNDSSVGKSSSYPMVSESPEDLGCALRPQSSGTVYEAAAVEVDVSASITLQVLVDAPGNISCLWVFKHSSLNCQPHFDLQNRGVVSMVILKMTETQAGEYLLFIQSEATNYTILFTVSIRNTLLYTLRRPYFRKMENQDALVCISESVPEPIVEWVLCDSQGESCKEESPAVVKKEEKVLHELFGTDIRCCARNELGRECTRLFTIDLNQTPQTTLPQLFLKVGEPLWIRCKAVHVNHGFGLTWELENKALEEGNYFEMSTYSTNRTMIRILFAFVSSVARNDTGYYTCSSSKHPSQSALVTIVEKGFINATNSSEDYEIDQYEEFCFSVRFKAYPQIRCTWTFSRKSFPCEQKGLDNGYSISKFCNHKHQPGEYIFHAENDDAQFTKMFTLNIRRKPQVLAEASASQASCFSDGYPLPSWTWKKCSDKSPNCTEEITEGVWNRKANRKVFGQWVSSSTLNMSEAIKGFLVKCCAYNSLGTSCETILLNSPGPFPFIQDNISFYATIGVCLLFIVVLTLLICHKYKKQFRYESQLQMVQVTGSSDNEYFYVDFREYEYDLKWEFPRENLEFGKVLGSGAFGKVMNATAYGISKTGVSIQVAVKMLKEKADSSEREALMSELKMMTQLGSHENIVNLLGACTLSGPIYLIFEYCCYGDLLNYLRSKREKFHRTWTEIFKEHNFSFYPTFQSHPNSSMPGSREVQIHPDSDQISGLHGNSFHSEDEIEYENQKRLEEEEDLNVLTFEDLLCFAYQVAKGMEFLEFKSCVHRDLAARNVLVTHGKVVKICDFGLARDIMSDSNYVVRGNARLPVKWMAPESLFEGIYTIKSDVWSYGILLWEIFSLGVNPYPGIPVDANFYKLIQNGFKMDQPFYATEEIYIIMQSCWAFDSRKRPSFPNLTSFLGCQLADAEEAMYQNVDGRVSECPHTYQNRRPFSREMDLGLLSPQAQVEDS
# [24] = biological target: Tyrosine-protein kinase Lck (Homo sapiens) (UniProt P06239); assay: Inhibition of LCK at 10 uM after 60 mins by TR-FRET assay
# [25] = biological target: Receptor-interacting serine/threonine-protein kinase 2 (Homo sapiens) (UniProt O43353); assay: Inhibition of RIPK2 at 10 uM after 60 mins by TR-FRET assay
# [26] = biological target: Mitogen-activated protein kinase 10 (Homo sapiens, UniProt P53779); assay: Inhibition of MAPK10 at 10 uM after 60 mins by TR-FRET assay
# Mitogen-activated protein kinase 10, sequence (P53779 whole entry): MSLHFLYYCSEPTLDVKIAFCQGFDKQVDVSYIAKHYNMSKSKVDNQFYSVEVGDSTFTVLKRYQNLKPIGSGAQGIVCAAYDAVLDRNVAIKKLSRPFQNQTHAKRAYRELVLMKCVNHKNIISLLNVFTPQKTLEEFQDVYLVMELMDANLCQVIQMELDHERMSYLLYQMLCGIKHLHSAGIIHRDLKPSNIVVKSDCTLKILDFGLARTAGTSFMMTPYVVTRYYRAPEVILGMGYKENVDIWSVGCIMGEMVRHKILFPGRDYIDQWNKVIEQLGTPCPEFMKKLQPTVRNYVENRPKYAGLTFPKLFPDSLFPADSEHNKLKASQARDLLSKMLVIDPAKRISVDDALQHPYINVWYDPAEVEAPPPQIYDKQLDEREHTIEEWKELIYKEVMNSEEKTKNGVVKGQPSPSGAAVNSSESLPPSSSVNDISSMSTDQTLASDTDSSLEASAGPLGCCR
# [27] = biological target: Leucine-rich repeat serine/threonine-protein kinase 2 (Homo sapiens) (UniProt Q5S007); assay: Inhibition of LRRK2 at 10 uM after 60 mins by TR-FRET assay
inhibition [1] [%],inhibition [2] [%],inhibition [3] [%],inhibition [4] [%],inhibition [5] [%],inhibition [6] [%],inhibition [7] [%],inhibition [8] [%],IC50 [9] [µM],inhibition [10] [%],inhibition [11] [%],inhibition [12] [%],inhibition [13] [%],inhibition [14] [%],inhibition [15] [%],inhibition [16] [%],inhibition [17] [%],inhibition [18] [%],inhibition [19] [%],inhibition [20] [%],SMILES,also measured
6,11,5,19,14,22,2,11,> 50,-4,3,1,5,13,4,35,73,10,24,8,O=c1[nH]nc(-c2ccnc(NC3CCOCC3)c2)n1-c1ccc2ccccc2c1,inhibition [21]: 11%; inhibition [22]: 74%; inhibition [23]: 32%; inhibition [24]: -3%; inhibition [25]: 6%; inhibition [26]: 73%; inhibition [27]: 25%
2,8,1,10,1,1,-7,-1,> 50,-9,-3,-10,-1,5,-2,-6,7,2,0,7,O=c1n(Cc2ccccn2)nc(-c2ccnc(NC3CCOCC3)c2)n1-c1ccc2ccccc2c1,inhibition [21]: 7%; inhibition [22]: 4%; inhibition [23]: 11%; inhibition [24]: -2%; inhibition [25]: 1%; inhibition [26]: 72%; inhibition [27]: 7%
47,38,17,27,70,76,11,37,> 50,-5,16,12,1,79,1,3,81,4,15,18,O=c1[nH]nc(-c2ccnc(NC3CCCOC3)c2)n1-c1ccc2ccccc2c1 (configuration not stated),inhibition [21]: 10%; inhibition [22]: 60%; inhibition [23]: 23%; inhibition [24]: 4%; inhibition [25]: 1%; inhibition [26]: 81%; inhibition [27]: 29%
13,19,5,5,26,39,-2,10,> 50,-10,3,7,-1,32,0,0,15,4,3,10,O=c1n(C2CCOCC2)nc(-c2ccnc(NC3CCCCC3)c2)n1-c1ccc2ccccc2c1,inhibition [21]: 7%; inhibition [22]: 7%; inhibition [23]: 8%; inhibition [24]: -6%; inhibition [25]: 13%; inhibition [26]: 86%; inhibition [27]: 7%
6,2,-2,2,7,18,6,3,> 50,5,-3,1,5,-5,0,3,13,8,-3,2,O=c1n(Cc2ccncc2)nc(-c2ccnc(NC3CCCCC3)c2)n1-c1ccc2ccccc2c1,inhibition [21]: 19%; inhibition [22]: 1%; inhibition [23]: 20%; inhibition [24]: 9%; inhibition [25]: 8%; inhibition [26]: 76%; inhibition [27]: -9%
3,22,4,12,8,20,-3,4,> 50,-9,2,1,1,17,1,2,38,5,8,5,O=c1[nH]nc(-c2ccnc(NC3CCCCC3)c2)n1-c1ccc2ccccc2c1,inhibition [21]: 2%; inhibition [22]: -1%; inhibition [23]: 12%; inhibition [24]: -10%; inhibition [25]: 6%; inhibition [26]: 72%; inhibition [27]: 11%
